Results published in PMC10156783, “Structural basis for catalysis of human choline/ethanolamine phosphotransferase 1” (Nature Communications, 2023).

Legend:
[1] = molecular target: T1, hCEPT1 (human choline/ethanolamine phosphotransferase 1) (Homo sapiens, UniProt Q9Y6K0); experiment: isothermal titration calorimetry; cryo-EM structure of the complex; details: read-out: binding affinity
T1 construct: gene CEPT1
T1 sequence (Q9Y6K0 1-416): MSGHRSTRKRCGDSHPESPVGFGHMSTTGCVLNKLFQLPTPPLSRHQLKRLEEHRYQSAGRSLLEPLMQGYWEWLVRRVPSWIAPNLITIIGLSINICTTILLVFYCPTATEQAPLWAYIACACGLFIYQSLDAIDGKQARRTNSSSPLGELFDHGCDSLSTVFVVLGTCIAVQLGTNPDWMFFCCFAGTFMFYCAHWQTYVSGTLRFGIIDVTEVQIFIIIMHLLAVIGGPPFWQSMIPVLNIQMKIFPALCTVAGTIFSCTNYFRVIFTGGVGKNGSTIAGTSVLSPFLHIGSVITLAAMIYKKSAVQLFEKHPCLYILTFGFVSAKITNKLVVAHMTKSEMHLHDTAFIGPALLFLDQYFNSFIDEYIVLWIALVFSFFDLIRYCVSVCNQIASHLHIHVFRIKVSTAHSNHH

[2] = molecular target: T1, hCEPT1 (human choline/ethanolamine phosphotransferase 1); details: co-substrate diacylglycerol in cholate/POPC micelles; Mg2+ 20 mM; pH 8.0; 37 °C
[3] = molecular target: the molecule itself; experiment: cryo-EM structure; purified CEPT1 at about 15 mg/ml in 25 mM Tris pH 8.0, 150 mM NaCl, 0.005% GDN; alone (3.7 Å) and with 10 mM CDP-choline (3.8 Å); C2 symmetry applied, a similar map with C1

C[N+](C)(C)CCOP(=O)(O)OP(=O)([O-])OC[C@H]1O[C@@H](n2ccc(N)nc2=O)[C@H](O)[C@@H]1O [CDP-choline]
Kd [1]: 46 µM

NCCOP(=O)(O)OP(=O)(O)OC[C@H]1O[C@@H](n2ccc(N)nc2=O)[C@H](O)[C@@H]1O [CDP-ethanolamine]
HPLC assay of CMP release [2]: CMP release was approximately doubled when CDP-choline was used as the substrate compared with CDP-ethanolamine

B1: human choline/ethanolamine phosphotransferase 1 (CEPT1), full length (enzyme, UniProt Q9Y6K0 1-416, looked up)
chain: T1 sequence (Q9Y6K0 1-416)
notes: residues 28-407 modelled in each protomer; Homodimer in the cryo-EM structures; membrane protein in GDN detergent; No removal of the tags is described; also called hCEPT1; CEPT1-A; source: FreeStyle 293-F suspension cells, transiently transfected, purified (anti-FLAG M2 resin, NTA resin, SEC in 0.005% GDN)
stoichiometry N [3]: 2
